Measurements reported in patent US20220062383A1, “REGULATION OF A FOREIGN BODY RESPONSE” (THE JOHNS HOPKINS UNIVERSITY, priority 2019, published 2022).

Experiments:
[1] = tested on: foreign body response to PCL implants (volumetric muscle loss model); test: qRT-PCR gene expression in tissue of PCL-implanted mice after IL17A/F NAb and/or senolytic treatment; assay type: in vivo, C57BL/6 mice; conditions: PCL implant
Experimental: All animal procedures were performed in accordance with an approved JHU IACUC protocol. Female mice were aged six to eight weeks-old. Several strains were utilized, including wild type C57BL/6j (Jackson Laboratories, Stock #00064), Rag2/OT-II (Taconic Stock #11490), IL17A-/- and IL17RA-/- (courtesy of Dr. Yoichiro Iwakura, University of Tokyo, Tokyo, Japan and Dr. Tomas Mustelin, Amgen, Seattle, respectively). Defects in muscle for material implantation were created as previously described (68). The resulting bilateral muscle defects were filled with 30 mg of a synthetic material. Synthetic materials tested include PCL (particulate, Mn=50000 g/mol, mean particle size<600 μm, Polysciences), ultrahigh molecular weight PE (particulate, Mn=5000 k g/mol, mean particle size=150 μm, Goodfellow), medical graded Silicone (sheet, Summit Medical), PEG hydrogels. PEG hydrogels were made with polyethylene glycol-diacrylate (PEG-DA, Mn=3400). PEG-DA (Polysciences) in PBS at 10% w/v concentration was mixed with photoinitiator (Irgacure 2959 solubilized to 10% w/v in 70% ethanol) to a final concentration of 0.05%. A 50 μL volume solution was cast onto each well of a flat bottom 96 wells plate. The solution was photocrosslinked via UV light for 30 mins to form a hydrogel sheet. Both silicone and PEG hydrogels were morselized into particles with a scalpel and placed into the defect. Control implants were injected with 50 μL of PBS (as a no implant control). All materials were UV sterilized prior to use. Directly after surgery, mice were given subcutaneous carprofen (Rimadyl®, Zoetis) at 5 mg/kg for pain relief. Mice were euthanized, and their implants were extracted at different time points: 1, 3, 6, or 12-weeks post-surgery. Additional modes of implantation were subcutaneous and intra-muscular injection. Briefly, synthetic materials were implanted subcutaneously (30 mg) on both flanks of the mice, or injected directly into the quadricep muscles through a 16 G syringe (5 mg of materials). Total RNA was isolated from whole tissue using TRIzol reagent and Qiagen's RNeasy kits. qRT-PCR was performed using Power SYBR Green Master Mix (Applied Biosystems) or TaqMan Gene Expression Master Mix (Applied Biosystems) according to manufacturer's instructions. Briefly, 2 μg of total RNA was used to synthesize cDNA using Superscript IV VILO Master Mix (ThermoFisher Scientific). The cDNA concentration was set to 50 ng/well (in a total volume of 20 μL PCR reaction). The qRT-PCR reactions were performed on the StepOne Plus Real-Time PCR System (ThermoFisher Scientific) using manufacturer recommended settings for quantitative and relative expression. Mice received 100 μl intraperitoneal (IP) injections of anti-IL17A (100 μg/ml, Cat #P13705.15) and anti-IL17F (100 μg/ml, Cat #P56220.17) (provided by Amgen) or isotype control (rat IgG2a, ThermoFisher Scientific, Cat #02-9688) every other day for a week. IL6 blocking antibody was administrated at 100 μg/ml (BioXCell, clone MP5-20F3) per mouse per day for 5 consecutive days. For senolytic treatment, mice received IP and intramuscular (IM) injections of Navitoclax (100 mg/kg, Selleckchem, Cat #HY-10087) for 5 consecutive days or vehicle control (5% DMSO, 3% Tween 80 in PBS). Co-administration of anti-I[…] and senolytic treatment were also evaluated. All mice received treatments at 4-weeks post-surgery for a total of 5 injections (1 injection per day per mouse), and were harvested in the following 2 weeks. The nCounter differential gene expression system was used to assess readable transcripts via the nanoString PanCancer Immune Profiling Panel. We utilized the nSolver software (version 3.0, nanoString Technologies, Inc.). All analyses of qRT-PCR data utilized the Livak Method, wherein ΔΔCt values are calculated, and then reported as relative quantification values calculated by […] (69). Treatment data points are normalized to either healthy or saline treated controls. β2M was utilized as the reference gene. […]

[2] = tested on: fibrosis around PCL implants (volumetric muscle loss model); test: Histology and immunofluorescence (αSMA, picrosirius red) of fibrosis around PCL implants after treatment; assay type: in vivo, C57BL/6 mice; conditions: PCL implant; treatment 4 weeks after implantation; tissue at 6 weeks; vs isotype or vehicle control
Experimental: All animal procedures were performed in accordance with an approved JHU IACUC protocol. Female mice were aged six to eight weeks-old. Several strains were utilized, including wild type C57BL/6j (Jackson Laboratories, Stock #00064), Rag2/OT-II (Taconic Stock #11490), IL17A-/- and IL17RA-/- (courtesy of Dr. Yoichiro Iwakura, University of Tokyo, Tokyo, Japan and Dr. Tomas Mustelin, Amgen, Seattle, respectively). Defects in muscle for material implantation were created as previously described (68). The resulting bilateral muscle defects were filled with 30 mg of a synthetic material. Synthetic materials tested include PCL (particulate, Mn=50000 g/mol, mean particle size<600 μm, Polysciences), ultrahigh molecular weight PE (particulate, Mn=5000 k g/mol, mean particle size=150 μm, Goodfellow), medical graded Silicone (sheet, Summit Medical), PEG hydrogels. PEG hydrogels were made with polyethylene glycol-diacrylate (PEG-DA, Mn=3400). PEG-DA (Polysciences) in PBS at 10% w/v concentration was mixed with photoinitiator (Irgacure 2959 solubilized to 10% w/v in 70% ethanol) to a final concentration of 0.05%. A 50 μL volume solution was cast onto each well of a flat bottom 96 wells plate. The solution was photocrosslinked via UV light for 30 mins to form a hydrogel sheet. […] Co-administration of anti-I[…] and senolytic treatment were also evaluated. […]

[3] = treatment 4 weeks after implantation, tissue at 6 weeks
[4] = treatment at 4 weeks, 6 weeks after implantation

CC1(C)CCC(c2ccc(Cl)cc2)=C(CN2CCN(c3ccc(C(=O)NS(=O)(=O)c4ccc(N[C@H](CCN5CCOCC5)CSc5ccccc5)c(S(=O)(=O)C(F)(F)F)c4)cc3)CC2)C1 [Navi, Navitoclax]
p16INK4a gene expression (senolysis) ([1]; one week after treatment, 6 weeks after implantation, p<0.0001): significantly decreased
Il17a (IL17) gene expression ([1]; treatment 4 weeks after implantation, 5 injections, tissue at 6 weeks, vs isotype or vehicle control): decreased
Collagen I gene expression [1, 3]: decreased
Tgfβ gene expression [1, 3]: decreased
Il16 gene expression [1, 4]: decreased
S100a4 gene expression [1, 4]: decreased
collagen III gene expression [1, 4]: decreased
αSMA immunofluorescence [2]: reduced
